The results in this text go back to patent US5798375A, “Treatment of arteriosclerosis and xanthoma” (Sankyo Company, Limited, priority 1995, dated 1998).

SMILES strings stand for the structures.

Common to all, as to type: in vivo
Test [1] deals with Male New Zealand white rabbits. Description: Example 3: regression of established atherosclerotic lesions in the cholesterol-fed rabbit model. Conditions: for Rate of lesion area, against the control group: figure in parentheses; for Rate of lesion area: thoracic aorta, two months, mean ± standard error, control 29 ± 20. The procedure: The rabbits were grouped randomly (3-9 animals per group) and the test samples were administered orally for two months, while they were fed with a normolipidaemic diet. […] The results are shown in terms of the percentage of lesion area in the thoracic aorta.

The subject of a further test is Male Fl b hamsters. In words: Example 4: regression of preformed atherosclerosis in hamsters (Oil Red O stained area). Conditions: for Stained Area ORO: aortic arch, 4 weeks, control 1.82 ± 0.44. The protocol: Synergism of HMG CoA reductase inhibitors and thiazolidinedione insulin sensitizers was examined by another regression model, i.e. the regression of preformed atherosclerosis in hamsters. Male Fl b hamsters (weight about 130 g,) were given a diet containing 0.05% cholesterol for 13 weeks. They were grouped randomly (2-7 animals per group), and then the test samples were administered for 4 weeks while the hamsters were given a normolipidaemic diet. Pravastatin and fluvastatin were mixed with drinking water at the dose of 3 mg/kg and 1.5 mg/kg, respectively, while troglitazone was mixed with the diet at the dose of 30 mg/kg or 100 mg/kg.
In the case of the combination groups, the dosage was 3 mg/kg+30 mg/kg or 3 mg/kg+100 mg/kg for the pravastatin+troglitazone group, and 1.5 mg/kg+30 mg/kg for the fluvastatin+troglitazone group.
Namely, the aortic arch was stained with ORO to prepare en face specimens. The percentage area which was positive to the ORO stain over the whole area was measured to represent the degree of aortic lesion.

The nature of test [2]: Example 1: plasma total cholesterol in WHHL rabbits. As to conditions: pravastatin 50 mg/kg/day oral gavage, troglitazone in diet containing 100 mg/kg. The procedure: (§1) WHHL rabbits [2-3 months of age, the Watanabe heritable hyperlipidemic rabbit described in Biochimica et Biophysica Acta, 960, 294-302 (1988)] were randomly assigned to a control group (7 animals, group A), a group receiving pravastatin alone (5 animals, Group B), a group receiving troglitazone alone (7 animals, Group C), and a group receiving a combination of both active substances (6 animals, Group D). Pravastatin was administered orally by gavage at a dose of 50 mg/kg/day once-daily and troglitazone was given in the diet, containing 100 mg/kg of the substance for 32 weeks. The ingested amount was limited to a daily 120 g per rabbit. Blood was withdrawn from the animal immediately before starting the study and 4, 8, 12, 16, 20, 24, 28 and 32 weeks after starting the study and the total cholesterol levels (mg/dl) were determined for each blood sample. The levels are reported as a percentage (%) of the levels measured immediately before starting the study. The animals were sacrificed and necropsied at week 32 to examine (a) the percent lesion area (%) in the total, thoracic or abdominal portion of the aorta; (b) the stenosis (%) of the coronary arteries and (c) the incidence (%) of xanthoma in the digital joints.

In test [3] the test system is WHHL rabbits. Description: Example 1: percent lesion area of the aorta in WHHL rabbits. As to conditions: week 32, mean ± standard error, pravastatin 50 mg/kg/day, troglitazone in diet containing 100 mg/kg, * p < 0.05 vs control. The protocol: as §1
(§2) The values actually measured are represented as an average value±standard error in those Tables.

Test [4] concerns WHHL rabbits. Description: Example 1: stenosis of the coronary arteries in WHHL rabbits. As to conditions: week 32. The protocol: as §1, §2
The test system of test [5] is WHHL rabbits. In words: Example 1: incidence of xanthoma in the digital joints of WHHL rabbits. The protocol:
as §1, §2

Setting [6] is: pravastatin 3 mg/kg, fluvastatin 1.5 mg/kg, troglitazone 30 mg/kg alone, combinations.

As to `CC(C)n1c(/C=C/C(O)CC(O)CC(=O)O)c(-c2ccc(F)cc2)c2ccccc21` (centres unmarked) [Fluvastatin], the “Rate of lesion area, against the control group” value in test [1] (0.08 mg/kg (as printed in Table 9)) stood at 93; in test [1] (1.5 mg/kg), 134. Moreover, the “Rate of lesion area” value stood at 27 ± 9% in test [1] (0.08 mg/kg (as printed in Table 9) oral) and 39 ± 16% in test [1] (1.5 mg/kg oral). Besides, in the test with Male Fl b hamsters (1.5 mg/kg), the “Stained Area, % of Control” value came to 96%. Also, the “Stained Area ORO” value in the test with Male Fl b hamsters (1.5 mg/kg in drinking water) is recorded as 1.74 ± 0.49%. Besides, the “regression of aortic lesions” value with Male Fl b hamsters (setting [6]) was “no regression of aortic lesions”.

For `Cc1c(C)c2c(c(C)c1O)CCC(C)(COc1ccc(CC3SC(=O)NC3=O)cc1)O2` (centres unmarked) [Troglitazone, 5-{4-[(6-hydroxy-2,5,7,8-tetramethyl-chroman-2-yl)methoxy]benzyl}-2,4-thiazolidinedione], the “total cholesterol level, % of level before starting the study” value in test [2] (week 4) is on record as 88%; in test [2] (week 8) it was 89%; in test [2] (week 12), 78%; in test [2] (week 16), 83%; in test [2] (week 20), 72%; in test [2] (week 24), 73%. Moreover, the “total cholesterol level, % of level before starting the study” value in test [2] (week 28) is 77%; in test [2] (week 32), 76%. For the same compound, in the test on WHHL rabbits [3] (control 29.9 ± 4.4), the “Lesion area, Abdominal aorta” value is listed as 27.6 ± 7.0%. Besides, the “Lesion Area, Total Aorta” value in the test with WHHL rabbits [3] (control 65.7 ± 3.9) came to 51.7 ± 7.7%. In addition, in the test on WHHL rabbits [3] (control 79.3 ± 5.4), the “Lesion area, Thoracic aorta” value was 57.9 ± 9.9%. Besides, the “Coronary stenosis, RCA (right coronary artery)” value with WHHL rabbits [4] (control 13) turned out to be 7%. Further, in the test with WHHL rabbits [4] (control 24), the “Coronary stenosis, LAD (left anterior descending artery)” value was 11%. In addition, in the test with WHHL rabbits [4] (control 40), the “Coronary stenosis, LSP (left septal artery)” value amounted to 31%. In addition, in the test on WHHL rabbits [4] (control 47), the “Coronary stenosis, LCX (left circumflex artery)” value came out at 39%. Further, in the test on WHHL rabbits [4] (control 61), the “Coronary stenosis, MLC (main left coronary artery)” value is recorded as 59%. Moreover, in the test with WHHL rabbits [4] (control 79), the “Coronary stenosis, MRC (main right coronary artery)” value came out at 83%. In addition, the “Incidence of xanthoma, Foreleg” value in the test on WHHL rabbits [5] (week 32, control 100 (14/14)) was found to be 86%. The “Incidence of xanthoma, Hind leg” value in the test on WHHL rabbits [5] (week 32, control 100 (14/14)) was found to be 29%. In addition, in the test on WHHL rabbits [5] (week 32, control 100 (28/28)), the “Incidence of xanthoma, Total” value is given as 57%. Also, the “Rate of lesion area, against the control group” value in test [1] (10 mg/kg) is 79. The “Rate of lesion area” value in test [1] (10 mg/kg oral) was determined as 23 ± 7%. Also, the “Stained Area, % of Control” value came out at 109% with Male Fl b hamsters (30 mg/kg) and 58% with Male Fl b hamsters (100 mg/kg). Besides, the figures for the “Stained Area ORO” value in the test with Male Fl b hamsters (30 mg/kg in diet) and in the test on Male Fl b hamsters (100 mg/kg in diet) were 1.99 ± 0.40% and 1.05 ± 0.64%, respectively. Also, the “regression of aortic lesions” value is given as “no regression of aortic lesions” in the test with Male Fl b hamsters (setting [6]) and “regression was observed” in the test on Male Fl b hamsters (troglitazone alone, 100 mg/kg).
